Among the data in ChEMBL document CHEMBL2086297, “Reduced pulmonary surfactant interaction of daptomycin analogs via tryptophan replacement with alternative amino acids” (2012) are MIC90 and MIC values, retold here.

Values after ≈ are worked out from the molar mass of the structure shown. Bounds are passed on as bounds.

Type in all cases: functional
One test concerns Streptococcus pneumoniae. Nature of the test: Antibacterial activity against Streptococcus pneumoniae.
For test [1], the system named is Staphylococcus aureus. Nature of the test: Antibacterial activity against methicillin-susceptible Staphylococcus aureus ATCC 29213 by broth microdilution method in presence of 1% pulmonary surfactant. To be noted: ATCC 29213, Pulmonary surfactant. (Broth dilution looks for growth in wells or tubes with falling amounts of substance.)
Test [2] deals with Staphylococcus aureus. The test is described as follows: Antibacterial activity against methicillin-susceptible Staphylococcus aureus ATCC 29213 by broth microdilution method in presence of 5% pulmonary surfactant. The settings on record: ATCC 29213, Pulmonary surfactant.
The subject of test [3] is Staphylococcus aureus. Nature of the test: Antibacterial activity against methicillin-susceptible Staphylococcus aureus ATCC 29213 grown on calcium supplemented Mueller-Hinton broth by broth microdilution method.
In test [4] the test system is Staphylococcus aureus. The test is described as follows: Antibacterial activity against methicillin-susceptible Staphylococcus aureus ATCC 29213 by broth microdilution method in presence of 4% human serum albumin.

Regarding `CCCCCCCCCC(=O)N[C@@H](Cc1c[nH]c2ccccc12)C(=O)N[C@H](CC(N)=O)C(=O)N[C@@H](CC(=O)O)C(=O)N[C@@H]1C(=O)NCC(=O)N[C@@H](CCCN)C(=O)N[C@@H](CC(=O)O)C(=O)N[C@H](C)C(=O)N[C@@H](CC(=O)O)C(=O)NCC(=O)N[C@H](CO)C(=O)N[C@@H]([C@H](C)CC(=O)O)C(=O)N[C@@H](CC(=O)c2ccccc2N)C(=O)O[C@@H]1C`, the MIC90 – broadly, an inhibitory concentration at the 90% level, which refers to growth in some studies and to a panel of isolates in others – against Streptococcus pneumoniae was 0.06 µg/mL (≈ 0.037 µM). For the same molecule, the minimal inhibitory concentration (MIC) (usually the smallest concentration in the dilution series that meets the test's criterion for growth inhibition) in the test with Staphylococcus aureus [1] is 16 µg/mL; with Staphylococcus aureus [2], > 32 µg/mL; in the test on Staphylococcus aureus [3] it was 1 µg/mL (≈ 0.617 µM); in the test on Staphylococcus aureus [4], 2 µg/mL.
As for `CCCCCCCCCC(=O)N[C@@H](Cc1c[nH]c2ccc(OC)cc12)C(=O)N[C@@H](CC(N)=O)C(=O)N[C@@H](CC(=O)O)C(=O)N[C@@H]1C(=O)NCC(=O)N[C@@H](CCCN)C(=O)N[C@@H](CC(=O)O)C(=O)N[C@H](C)C(=O)N[C@@H](CC(=O)O)C(=O)NCC(=O)N[C@H](CO)C(=O)N[C@@H]([C@@H](C)CC(=O)O)C(=O)N[C@@H](CC(=O)c2ccccc2N)C(=O)O[C@@H]1C`, the minimum inhibitory concentration (MIC) in the test with Staphylococcus aureus [1] turned out to be 16 µg/mL; with Staphylococcus aureus [2], 32 µg/mL; in the test on Staphylococcus aureus [3], 4 µg/mL (≈ 2.42 µM); in the test with Staphylococcus aureus [4], 8 µg/mL.
The corresponding values for `CCCCCCCCCC(=O)N[C@@H](CCc1ccccc1)C(=O)N[C@@H](CC(N)=O)C(=O)N[C@@H](CC(=O)O)C(=O)N[C@@H]1C(=O)NCC(=O)N[C@@H](CCCN)C(=O)N[C@@H](CC(=O)O)C(=O)N[C@H](C)C(=O)N[C@@H](CC(=O)O)C(=O)NCC(=O)N[C@H](CO)C(=O)N[C@@H]([C@@H](C)CC(=O)O)C(=O)N[C@@H](CC(=O)c2ccccc2N)C(=O)O[C@@H]1C` are 8 µg/mL, 32 µg/mL, 1 µg/mL (≈ 0.627 µM) and 4 µg/mL.
Consider `CCCCCCCCCC(=O)N[C@@H](CCc1ccc(OC)cc1)C(=O)N[C@@H](CC(N)=O)C(=O)N[C@@H](CC(=O)O)C(=O)N[C@@H]1C(=O)NCC(=O)N[C@@H](CCCN)C(=O)N[C@@H](CC(=O)O)C(=O)N[C@H](C)C(=O)N[C@@H](CC(=O)O)C(=O)NCC(=O)N[C@H](CO)C(=O)N[C@@H]([C@@H](C)CC(=O)O)C(=O)N[C@@H](CC(=O)c2ccccc2N)C(=O)O[C@@H]1C`, for which the MIC with Staphylococcus aureus [1] amounted to 8 µg/mL; in the test on Staphylococcus aureus [2], 32 µg/mL; in the test on Staphylococcus aureus [3] it was 2 µg/mL (≈ 1.23 µM); with Staphylococcus aureus [4], 8 µg/mL.
`CO/N=C(\C(=O)N[C@@H]1C(=O)N2C(C(=O)O)=C(CSc3nc(=O)c(O)nn3C)CS[C@H]12)c1csc(N)n1` [CEFTRIAXONE]: the minimal inhibitory concentration (MIC) with Staphylococcus aureus [1] was 2 µg/mL; in the test on Staphylococcus aureus [2], 2 µg/mL; in the test on Staphylococcus aureus [3], 2 µg/mL (≈ 3.61 µM); in the test on Staphylococcus aureus [4], 8 µg/mL.
Regarding `CCCCCCCCCC(=O)N[C@@H](Cc1ccc(N(C)C)cc1)C(=O)N[C@@H](CC(N)=O)C(=O)N[C@@H](CC(=O)O)C(=O)N[C@@H]1C(=O)NCC(=O)N[C@@H](CCCN)C(=O)N[C@@H](CC(=O)O)C(=O)N[C@H](C)C(=O)N[C@@H](CC(=O)O)C(=O)NCC(=O)N[C@H](CO)C(=O)N[C@@H]([C@@H](C)CC(=O)O)C(=O)N[C@@H](CC(=O)c2ccccc2N)C(=O)O[C@@H]1C`, the MIC in the test on Staphylococcus aureus [1] was 2 µg/mL; with Staphylococcus aureus [2], 2 µg/mL; in the test with Staphylococcus aureus [3] it was 2 µg/mL (≈ 1.23 µM); in the test on Staphylococcus aureus [4] it was 4 µg/mL.
